Results from patent US10196390B2, “TYK2 inhibitors and uses thereof” (Nimbus Lakshmi, Inc., priority 2014, dated 2019).

What was measured:
TYK2 = TYK2 (Homo sapiens (Human), UniProt P29597); experiment: Tyk2 activity inhibition assay (radioactive kinase assay / Caliper assay); type: biochemical
Description: Peptide substrate, [[…]], (20 μM) is prepared in reaction buffer (20 mM Hepes pH 7.5, 10 mM MgCl2, 1 mM EGTA, 0.02% Brij35, 0.02 mg/mL BSA, […], 2 mM DTT, 1% DMSO. TYK2 (Invitrogen) kinase is added, followed by compounds in DMSO. 33PATP is added to initiate the reaction in ATP at 10 μM. Kinase reaction is incubated for 120 min at room temp and reactions are spotted onto P81 ion exchange paper (Whatman #3698-915), and then washed extensively in 0.75% phosphoric acid, prior to reading the radioactivity counts. For JAK2 (Invitrogen) kinase assay the peptide substrate poly[Glu:Tyr](4:1), 0.2 mg/ml is used, in the reaction carried out the same as for TYK2.
(§1) The caliper machine employs an off chip mobility shift assay to detect phosphorylated peptide substrates from kinase assays, using microfluidics technology. The assays are carried out at ATP concentration equivalent to the ATP Km, and at 1 mM ATP. Compounds are serially diluted in DMSO then further diluted in assay buffer (25 mM HEPES, pH 7.5, 0.01% Brij-35, 0.01% Triton, 0.5 mM EGTA). 5 ul of diluted compound was added into wells first, then 10 ul of enzyme mix was added into wells, followed by 10 uL of substrate mix (peptide and ATP in 10 mM MgCl2) to start reaction. Reaction was incubated at 28° C. for 25 min and then added 25 ul stop buffer (100 mM HEPES, 0.015% Brij-35, 50 mM EDTA), followed by reading with Caliper. JAK2 at 1 nM final concentration and TYK2 at 9.75 nM are from Carna, and substrates used are ATP at 20 and 16 uM, respectively. JAK2 assay uses peptide 22 and TYK2 uses peptide 30 (Caliper), each at 3 uM.

JAK2 = JAK2 (Homo sapiens (Human), UniProt O60674); experiment: JAK2 activity inhibition assay (radioactive kinase assay / Caliper assay); type: biochemical; details: read-out: JAK2 Ki
Description: as §1, with “The assays are carried out at ATP concentration equivalent to the ATP Km, and at 1 mM ATP.” left out, “Caliper.” for “Caliper. JAK2 at 1 nM final concentration and TYK2 at 9.75 nM are from Carna, and substrates used are ATP at 20 and 16 uM, respectively. JAK2 assay uses peptide 22 and TYK2 uses peptide 30 (Caliper), each at 3 uM.”

Chain of TYK2 (P29597 whole entry): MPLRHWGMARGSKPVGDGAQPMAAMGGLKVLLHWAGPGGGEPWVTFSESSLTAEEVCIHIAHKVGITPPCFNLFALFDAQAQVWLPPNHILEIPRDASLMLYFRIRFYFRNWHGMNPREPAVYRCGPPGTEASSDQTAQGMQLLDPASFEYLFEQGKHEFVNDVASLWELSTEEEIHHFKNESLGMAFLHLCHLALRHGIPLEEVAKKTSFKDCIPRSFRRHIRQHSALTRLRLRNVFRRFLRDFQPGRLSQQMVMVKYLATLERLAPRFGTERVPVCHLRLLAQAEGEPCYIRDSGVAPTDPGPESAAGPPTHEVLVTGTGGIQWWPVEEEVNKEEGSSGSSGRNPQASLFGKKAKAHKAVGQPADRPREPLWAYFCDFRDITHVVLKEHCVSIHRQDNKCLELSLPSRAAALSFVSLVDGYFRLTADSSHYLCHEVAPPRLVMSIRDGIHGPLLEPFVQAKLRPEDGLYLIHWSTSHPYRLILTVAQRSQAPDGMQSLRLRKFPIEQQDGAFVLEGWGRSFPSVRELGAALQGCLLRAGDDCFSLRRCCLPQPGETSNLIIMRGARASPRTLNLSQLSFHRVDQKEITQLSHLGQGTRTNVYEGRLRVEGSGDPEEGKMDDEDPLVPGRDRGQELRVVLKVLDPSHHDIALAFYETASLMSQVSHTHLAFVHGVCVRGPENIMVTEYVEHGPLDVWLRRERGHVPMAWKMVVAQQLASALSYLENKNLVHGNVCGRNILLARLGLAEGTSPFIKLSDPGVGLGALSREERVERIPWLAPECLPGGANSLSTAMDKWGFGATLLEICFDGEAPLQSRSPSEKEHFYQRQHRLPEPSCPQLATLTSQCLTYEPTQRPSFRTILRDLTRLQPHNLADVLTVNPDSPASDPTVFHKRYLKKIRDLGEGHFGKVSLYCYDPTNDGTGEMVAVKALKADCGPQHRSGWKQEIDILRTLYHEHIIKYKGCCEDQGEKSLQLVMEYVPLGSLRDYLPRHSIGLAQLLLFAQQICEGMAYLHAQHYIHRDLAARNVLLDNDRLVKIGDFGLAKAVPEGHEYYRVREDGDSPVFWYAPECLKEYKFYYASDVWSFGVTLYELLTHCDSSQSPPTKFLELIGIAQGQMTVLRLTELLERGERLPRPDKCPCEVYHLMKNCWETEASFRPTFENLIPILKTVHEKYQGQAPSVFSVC
Chain of JAK2 (O60674 whole entry): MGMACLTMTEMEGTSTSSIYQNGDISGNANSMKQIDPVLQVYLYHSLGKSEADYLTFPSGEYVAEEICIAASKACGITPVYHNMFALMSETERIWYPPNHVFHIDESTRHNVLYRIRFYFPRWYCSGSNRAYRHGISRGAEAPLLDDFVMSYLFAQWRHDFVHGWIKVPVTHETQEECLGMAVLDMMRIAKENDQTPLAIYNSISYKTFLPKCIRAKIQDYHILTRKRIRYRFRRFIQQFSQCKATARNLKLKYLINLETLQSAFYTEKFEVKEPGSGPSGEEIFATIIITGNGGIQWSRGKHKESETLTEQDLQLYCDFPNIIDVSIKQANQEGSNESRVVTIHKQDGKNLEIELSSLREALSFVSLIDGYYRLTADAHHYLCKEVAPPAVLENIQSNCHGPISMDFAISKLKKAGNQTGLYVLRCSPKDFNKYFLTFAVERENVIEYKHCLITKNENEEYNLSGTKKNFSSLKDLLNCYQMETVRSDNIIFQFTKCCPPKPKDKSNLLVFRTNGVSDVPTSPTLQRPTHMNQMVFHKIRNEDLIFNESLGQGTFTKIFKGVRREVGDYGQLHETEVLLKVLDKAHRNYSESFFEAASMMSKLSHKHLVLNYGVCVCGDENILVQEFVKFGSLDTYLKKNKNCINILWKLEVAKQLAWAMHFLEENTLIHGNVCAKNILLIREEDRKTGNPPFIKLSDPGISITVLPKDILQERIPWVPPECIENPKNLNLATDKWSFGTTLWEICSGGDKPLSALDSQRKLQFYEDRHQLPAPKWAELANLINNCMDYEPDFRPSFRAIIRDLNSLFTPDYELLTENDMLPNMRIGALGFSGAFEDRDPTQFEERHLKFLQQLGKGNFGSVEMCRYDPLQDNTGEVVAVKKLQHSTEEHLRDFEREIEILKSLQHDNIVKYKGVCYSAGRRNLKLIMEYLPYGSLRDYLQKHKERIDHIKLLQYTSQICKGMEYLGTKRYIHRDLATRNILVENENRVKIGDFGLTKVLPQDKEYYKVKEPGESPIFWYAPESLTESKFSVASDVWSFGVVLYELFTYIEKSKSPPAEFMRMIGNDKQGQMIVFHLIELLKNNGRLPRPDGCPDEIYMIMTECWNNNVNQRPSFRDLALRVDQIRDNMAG

| Compound | Ki (TYK2) [nM] | Ki (JAK2) [nM] |
| --- | --- | --- |
| CCOC(=O)Cc1ccc(Nc2nc(-c3ccccc3Cl)nc3c2C(=O)NC3)cc1 [Compound I-1, Ethyl 2-(4-((2-(2-chlorophenyl)-5-oxo-6,7-dihydro-5H-pyrrolo[3,4-d]pyrimidin-4-yl)amino)phenyl)acetate] | < 10 | 100 to 1000 |
| O=C(O)Cc1ccc(Nc2nc(-c3c(F)cccc3F)nc3c2C(=O)NC3)cc1 [Compound I-2, 2-(4-((2-(2,6-difluorophenyl)-5-oxo-6,7-dihydro-5H-pyrrolo[3,4-d]pyrimidin-4-yl)amino)phenyl)acetic Acid] | < 10 | > 1000 |
| CCOC(=O)Cc1ccc(Nc2nc(-c3c(F)cccc3F)nc3c2C(=O)NC3)cc1 [Compound I-3, ethyl 2-(4-((2-(2,6-difluorophenyl)-5-oxo-6,7-dihydro-5H-pyrrolo[3,4-d]pyrimidin-4-yl)amino)phenyl)acetate] | < 10 | 100 to 1000 |
| CCOC(=O)Cc1ccc(Nc2nc(-c3c(F)cccc3Cl)nc3c2C(=O)NC3)cc1 [Compound I-4, ethyl 2-(4-((2-(2-chloro-6-fluorophenyl)-5-oxo-6,7-dihydro-5H-pyrrolo[3,4-d]pyrimidin-4-yl)amino)phenyl)acetate] | < 10 | 100 to 1000 |
| NC(=O)Cc1ccc(Nc2nc(-c3ccccc3Cl)nc3c2C(=O)NC3)cc1 [Compound I-8, 2-(4-((2-(2-chlorophenyl)-5-oxo-6,7-dihydro-5H-pyrrolo[3,4-d]pyrimidin-4-yl)amino)phenyl)acetamide] | 10 to 100 | > 1000 |

Continued, values first:

| Ki (TYK2) [nM] | Ki (JAK2) [nM] | Compound |
| --- | --- | --- |
| < 10 | 100 to 1000 | CCOC(=O)Cc1ccc(Nc2nc(-c3c(Cl)cccc3Cl)nc3c2C(=O)NC3)cc1 [Compound I-5, ethyl 2-(4-((2-(2,6-dichlorophenyl)-5-oxo-6,7-dihydro-5H-pyrrolo[3,4-d]pyrimidin-4-yl)amino)phenyl)acetate] |
| < 10 | 100 to 1000 | O=C(O)Cc1ccc(Nc2nc(-c3c(Cl)cccc3Cl)nc3c2C(=O)NC3)cc1 [Compound I-6, 2-(4-((2-(2,6-dichlorophenyl)-5-oxo-6,7-dihydro-5H-pyrrolo[3,4-d]pyrimidin-4-yl)amino)phenyl)acetic Acid] |
| 10 to 100 | > 1000 | O=C(O)Cc1ccc(Nc2nc(-c3ccccc3Cl)nc3c2C(=O)NC3)cc1 [Compound I-7, 2-(4-((2-(2-chlorophenyl)-5-oxo-6,7-dihydro-5H-pyrrolo[3,4-d]pyrimidin-4-yl)amino)phenyl)acetic Acid] |
| 10 to 100 |  | O=C1NCc2nc(-c3c(F)cccc3F)nc(Nc3ccc(OC(F)(F)F)cc3)c21 [Compound I-184, 2-(2,6-difluorophenyl)-4-((4-(trifluoro-methoxy)phenyl)amino)-6,7-dihydro-5H-pyrrolo[3,4-d]pyrimidin-5-one] |
| 100 to 1000 |  | O=C1NCc2nc(-c3c(F)cccc3F)nc(Nc3ccc(C4CCCCC4)cc3)c21 [Compound I-197, 4-((4-cyclohexylphenyl)amino)-2-(2,6-difluorophenyl)-6,7-dihydro-5H-pyrrolo[3,4-d]pyrimidin-5-one] |
| 10 to 100 |  | O=C1NCc2nc(-c3c(F)cccc3F)nc(Nc3ccc(S(=O)(=O)C(F)(F)F)cc3)c21 [Compound I-236, 2-(2,6-difluorophenyl)-4-((4-((trifluoromethyl)sulfonyl)phenyl)-amino)-6,7-dihydro-5H-pyrrolo[3,4-d]pyrimidin-5-one] |
| 100 to 1000 |  | COc1ccc(Nc2cc(-c3c(F)cccc3F)nc3c2C(=O)N[C@H]3C)nc1 [Compound I-241, (S)-2-(2,6-difluorophenyl)-4-((5-methoxypyridin-2-yl)amino)-7-methyl-6,7-dihydro-5H-pyrrolo[3,4-b]pyridin-5-one] |
| 10 to 100 |  | Cc1ccc(Nc2nc(-c3c(F)cccc3F)nc3c2C(=O)NC3)cc1F [Compound I-292, 2-(2,6-difluorophenyl)-4-((3-fluoro-4-methylphenyl)amino)-6,7-dihydro-5H-pyrrolo[3,4-d]pyrimidin-5-one] |
